# Laboratory results as given in patent US6090780A (Chandon Prasad, priority 1999, dated 2000).
# Columns and labels:
# Type in all cases: in vivo
# Sprague-Dawley rats = test: Effect of intraperitoneal and oral administration of CHP on food intake; conditions: for food intake, mean ± SEM, n = 6: 7 h after 21 h fast; for effect on food consumption: up to 50 mg/Kg of body weight
# Protocol: Thirty-six outbred adult male Sprague-Dawley rats, certified virus free, obtained from Hilltop Laboratories, New York, N.Y. were housed in a temperature and light controlled room for a period of at least seven days after arrival. Sprague-Dawley rats are white albino outbred rats. The temperature of the room was maintained at about 20-21° C. The lights in the room were cycled between on and off every twelve hours. The rats were allowed free access to Purina Chow food and water prior to beginning the experiment. For the experiment rats were divided into six groups of six rats each. […] The amount of CHP in each dose was based on the body weight of the individual rat. Rats were fasted for about 21 hours from food but not water. Oral dosages of CHP were administered using a gavage tube according to each rat group. The rats were then given access to Purina Chow and water for the next seven hours. Food intake during the seven hours was measured in grams per rat and averaged for each group. […] At the end of this period, the experiment was repeated using intraperitoneal administration.
# C57BL mice [1] = test: Voluntary alcohol consumption in alcohol experienced mice (two-bottle choice); conditions: for ETHANOL PREFERENCE (%): 7 days
# Protocol: Forty adult male C57BL mice were obtained from Jackson Laboratories and housed individually in light controlled rooms for a period of at least ten days prior to beginning the experiment with free access to Purina Chow and water. The lights were cycled on and off every twelve hour period. The mice were divided into four groups of ten. Each room was fitted with two 250 ml bottles having drip proof drinking spouts on both sides of a food bin containing Purina Chow. Both bottles contained 6% (V/V) ethanol in water and were the only source of fluid available. Mice were allowed to drink for seven days. On the eighth day, one bottle containing ethanol in water was removed and replaced with a 250 ml bottle containing water. […] The bottles were frequently exchanged to discourage positional preference. Fluid intake from each bottle was recorded after an additional 7 days. % Ethanol preference was calculated for each group.
# C57BL mice [2] = test: Voluntary alcohol consumption in alcohol naive mice (two-bottle choice); conditions: for % ETHANOL PREFERENCE (mean ± SEM): 7 days
# Protocol: Forty adult male C57BL mice were obtained from Jackson Laboratories and housed individually in light controlled rooms for a period of at least ten days after arrival with free access to Purina Chow and water. The lights were cycled on and off every twelve hour period. Mice were divided into four groups of ten. Each room was fitted with two 250 ml bottles having drip proof drinking spouts on both sides of a food bin containing Purina Chow. One bottle contained 6% (V/V) ethanol in water whereas the other bottle contained water. […] The two bottles were frequently exchanged with each other to minimize positional preference. Fluid intake from each bottle was recorded after 7 days.
# Ethanol preference was calculated as ethanol intake/(ethanol intake+water intake)×100.
# [3] = CHP 1 μg/ml fluid in each bottle
# [4] = CHP 5 μg/ml fluid in each bottle
# [5] = CHP 10 μg/ml fluid in each bottle
substance,measurement,setting,value
Histidyl-proline diketopiperazine [CHP],"food intake, mean ± SEM, n = 6","Sprague-Dawley rats; intraperitoneal, 1 mg/kg of body weight",17.6 ± 3.6 g/rat
same,"food intake, mean ± SEM, n = 6","Sprague-Dawley rats; intraperitoneal, 5 mg/kg of body weight",14.2 ± 0.7 g/rat
same,"food intake, mean ± SEM, n = 6","Sprague-Dawley rats; intraperitoneal, 10 mg/kg of body weight",14.1 ± 2.9 g/rat
same,"food intake, mean ± SEM, n = 6","Sprague-Dawley rats; intraperitoneal, 20 mg/kg of body weight",14.4 ± 1.0 g/rat
same,"food intake, mean ± SEM, n = 6","Sprague-Dawley rats; intraperitoneal, 50 mg/kg of body weight",14.7 ± 1.2 g/rat
same,effect on food consumption,"Sprague-Dawley rats; intraperitoneal, ANOVA F=1.86, p=0.13",no significant effect
same,"food intake, mean ± SEM, n = 6","Sprague-Dawley rats; oral, 1 mg/kg of body weight",14.3 ± 2.2 g/rat
same,"food intake, mean ± SEM, n = 6","Sprague-Dawley rats; oral, 5 mg/kg of body weight",14.7 ± 1.2 g/rat
same,"food intake, mean ± SEM, n = 6","Sprague-Dawley rats; oral, 10 mg/kg of body weight",13.1 ± 2.1 g/rat
same,"food intake, mean ± SEM, n = 6","Sprague-Dawley rats; oral, 20 mg/kg of body weight",15.1 ± 2.3 g/rat
same,"food intake, mean ± SEM, n = 6","Sprague-Dawley rats; oral, 50 mg/kg of body weight",15.7 ± 1.7 g/rat
same,effect on food consumption,"Sprague-Dawley rats; oral, ANOVA F=0.92",no significant effect
same,alcohol preference after CHP administration,"C57BL mice [1]; ANOVA: F=3.88, p=0.0195",dose dependence decrease
same,ETHANOL PREFERENCE (%),C57BL mice [1]; [3],58%
same,ETHANOL PREFERENCE (%),C57BL mice [1]; [4],54%
same,ETHANOL PREFERENCE (%),C57BL mice [1]; [5],40%
same,effect on average daily fluid intake,"C57BL mice [2]; ANOVA: F=0.09, p=0.96",did not effect
same,alcohol preference after CHP administration,"C57BL mice [2]; ANOVA: F=3.73, p=0.019",dose dependence decrease
same,AVERAGE FLUID INTAKE,C57BL mice [2]; [3],2.9 mL/day
same,% ETHANOL PREFERENCE (mean ± SEM),C57BL mice [2]; [3],29 ± 6%
same,AVERAGE FLUID INTAKE,C57BL mice [2]; [4],2.8 mL/day
same,% ETHANOL PREFERENCE (mean ± SEM),C57BL mice [2]; [4],23 ± 6%
same,AVERAGE FLUID INTAKE,C57BL mice [2]; [5],2.7 mL/day
same,% ETHANOL PREFERENCE (mean ± SEM),C57BL mice [2]; [5],15%
